According to patent publication US20130315825A1, “TRICYCLIC HETEROAROMATIC COMPOUNDS AS ALPHA-SYNUCLEIN LIGANDS” (Washington University, priority 2012, published 2013):
Where two headings read alike, the source gives them in different places. Blank lines part the entries; values can stand above or below the compound they belong to.

Columns and labels:
α-synuclein fibrils [1] = target: T1, α-synuclein fibrils (Homo sapiens, UniProt P37840); assay: ThT competitive binding assay with α-synuclein fibrils
Aβ plaques in AD brain = conditions: cited from earlier work; for Kd: binding to Aβ plaques
[2] = Ex vivo biodistribution in Sprague-Dawley rats; conditions: for brain uptake: male SD rats (n=4);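 on all read-outs here: four rats in each time-point group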
α-synuclein fibrils [3] = target: T1, α-synuclein fibrils; conditions: [125I]SIL23 competition, 95% confidence intervals in parentheses
[4] = target: Human PD brain homogenate (Homo sapiens, UniProt P37840); conditions: [125I]SIL23 competition, human PD brain homogenate (insoluble fraction); 95% confidence intervals in parentheses
Aβ1-42 fibrils [5] = target: T2, Aβ1-42 fibrils (Homo sapiens, UniProt P05067); assay: [125I]SIL23 saturation binding, synthetic Aβ1-42 fibrils
T2 construct: Synthetic Aβ1-42 peptide (1 mg) (Bachem, Torrance, Calif.); purchased Bachem, Torrance, Calif; host or cells: synthetic peptide

tau fibrils = target: T3, tau fibrils (Homo sapiens, UniProt P10636); assay: [125I]SIL23 saturation binding, recombinant tau fibrils
T3 construct: made in house; host or cells: BL21(DE3)RIL E. coli
Description: Recombinant tau protein was produced in E. Coli.
Filters containing the bound ligand were mixed with 150 μl of Optiphase Supermix scintillation cocktail (PerkinElmer) and counted immediately. All data points were performed in triplicate.

Aβ1-42 fibrils [6] = target: T2, Aβ1-42 fibrils; assay: [125I]SIL23 competitive binding assay, Aβ1-42 fibrils; conditions: [125I]SIL23 competition, 95% confidence intervals in parentheses

T2 sequence (P05067 672-713 limits assumed): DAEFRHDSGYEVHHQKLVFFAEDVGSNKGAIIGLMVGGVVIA
T3 sequence (P10636 560-692): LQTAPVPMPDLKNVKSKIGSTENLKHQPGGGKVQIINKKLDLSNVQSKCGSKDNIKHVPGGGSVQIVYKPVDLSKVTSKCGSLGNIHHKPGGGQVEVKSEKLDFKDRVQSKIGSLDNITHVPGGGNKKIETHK

Compound: COc1ccc2c(c1)Sc1cc(C(F)(F)F)ccc1N2 [TZ5B-71, 3-methoxy-7-(trifluoromethyl)-10H-phenothiazine]
- IC50 (α-synuclein fibrils [1]): 742.7 ± 1.1 nM
- Ki (α-synuclein fibrils [1]): 178 nM

Compound: COc1ccc2c(c1)Nc1ccc(C(F)(F)F)cc1S2 [TZ5B-159-1, 2-methoxy-7-(trifluoromethyl)-10H-phenothiazine]
- IC50 (α-synuclein fibrils [1]): 1082 ± 2.4 nM
- Ki (α-synuclein fibrils [1]): 260 nM

Compound: CNc1ccc(/C=C/c2ccc(OCCOCCOCCF)nc2)cc1 [AV-45]
- average Bmax / binding site density (Aβ plaques in AD brain; AV-45 binding in AD brain): 8.8 pmol/mg protein
- Kd (Aβ plaques in AD brain): 3.7 nM

Compound: O=C(O)c1cc(/N=N/c2ccc(-c3ccc(/N=N/c4ccc(O)c(C(=O)O)c4)cc3)cc2)ccc1O [Chrysamine G]
- Ki (α-synuclein fibrils [3]): 432 nM
- Ki [4]: 367 nM

Compound: COc1ccc2c(c1)Sc1cccnc1N2 [TZ5B-95-1, 7-methoxy-10H-benzo[b]pyrido[2,3-e][1,4]thiazine]
- IC50 (α-synuclein fibrils [1]): 6624 ± 1.4 nM
- Ki (α-synuclein fibrils [1]): 1590 nM

Compound: COc1ccc2c(c1)Sc1cc([N+](=O)[O-])ccc1N2 [SIL5, 3-methoxy-7-nitro-10H-phenothiazine]
- Ki (Aβ1-42 fibrils [6]): 110 nM

Compound: CNc1ccc(-c2nc3ccc(O)cc3s2)cc1 [PIB]
- Ki (α-synuclein fibrils [3]): 116 nM
- Ki [4]: 99.2 nM
- average Bmax / binding site density (Aβ plaques in AD brain; PiB binding in AD brain): 1407 pmol/g wet weight
- Kd (Aβ plaques in AD brain): 2.5 nM

Compound: COc1ccc2c(c1)Nc1ccc([N+](=O)[O-])cc1S2 [TZ10-1-2-1, 2-methoxy-7-nitro-10H-phenothiazine]
- IC50 (α-synuclein fibrils [1]): 152 ± 1.1 nM
- Ki (α-synuclein fibrils [1]): 36.5 nM

Compound: COc1cccc2c1N(C(C)=O)c1ccc(C(F)(F)F)cc1S2 [TZ5B-145-2, 1-(1-methoxy-7-(trifluoromethyl)-10H-phenothiazin-10-yl)ethanone]
- IC50 (α-synuclein fibrils [1]): 1048 ± 1.9 nM
- Ki (α-synuclein fibrils [1]): 252 nM

Compound: CN(C)c1ncc(/C=C/c2nc3ccc(OCCF)cc3o2)s1 [BF227]
- Ki (α-synuclein fibrils [3]): 39.7 nM
- Ki [4]: 138 nM

Compound: COc1ccc2c(c1)Sc1cnccc1N2 [TZ5B-79-1-1, 8-methoxy-5H-benzo[b]pyrido[4,3-e][1,4]thiazine]
- IC50 (α-synuclein fibrils [1]): 2231 ± 1.2 nM
- Ki (α-synuclein fibrils [1]): 536 nM

Compound: COc1cccc2c1Nc1ccc([N+](=O)[O-])cc1S2 [TZ10-27-1, 1-methoxy-7-nitro-10H-phenothiazine]
- IC50 (α-synuclein fibrils [1]): 1426 ± 1.2 nM
- Ki (α-synuclein fibrils [1]): 342 nM

Further lines, results first:

- Ki (α-synuclein fibrils [1]): > 1000 nM
Compound: CC(=O)N1c2ccccc2N(C(C)=O)c2ccccc21 [TZ16-147-3, 1,1′-(phenazine-5,10-diyl)diethanone]

- Biodistribution ([2]; blood, 5 min, male Sprague-Dawley rats): 0.553 ± 0.047 I.D. %/gram
- Biodistribution ([2]; blood, 30 min, male Sprague-Dawley rats): 0.589 ± 0.016 I.D. %/gram
- Biodistribution ([2]; blood, 60 min, male Sprague-Dawley rats): 0.606 ± 0.035 I.D. %/gram
- Biodistribution ([2]; blood, 120 min, male Sprague-Dawley rats): 0.585 ± 0.046 I.D. %/gram
- defluorination ([2]; bone uptake from 5 to 60 min): no defluorination was observed
- Biodistribution ([2]; bone, 5 min, male Sprague-Dawley rats): 0.340 ± 0.027 I.D. %/gram
- Biodistribution ([2]; bone, 30 min, male Sprague-Dawley rats): 0.309 ± 0.020 I.D. %/gram
- Biodistribution ([2]; bone, 60 min, male Sprague-Dawley rats): 0.407 ± 0.043 I.D. %/gram
- Biodistribution ([2]; bone, 120 min, male Sprague-Dawley rats): 0.644±0.071 I.D. %/gram
- brain uptake ([2]; 5 min post i.v. injection): 0.758±0.013 % I.D./g
- brain uptake ([2]; 30 min post i.v. injection): 0.465±0.018 % I.D./g
- brain uptake ([2]; 60 min post i.v. injection): 0.410±0.030 % I.D./g
- brain uptake ([2]; 120 min post i.v. injection): 0.359±0.016 % I.D./g
- Biodistribution ([2]; fat, 5 min, male Sprague-Dawley rats): 0.255 ± 0.037 I.D. %/gram
- Biodistribution ([2]; fat, 30 min, male Sprague-Dawley rats): 0.425 ± 0.023 I.D. %/gram
- Biodistribution ([2]; fat, 60 min, male Sprague-Dawley rats): 0.371 ± 0.067 I.D. %/gram
- Biodistribution ([2]; fat, 120 min, male Sprague-Dawley rats): 0.293 ± 0.048 I.D. %/gram
- Biodistribution ([2]; heart, 5 min, male Sprague-Dawley rats): 0.757 ± 0.033 I.D. %/gram
- Biodistribution ([2]; heart, 30 min, male Sprague-Dawley rats): 0.505 ± 0.015 I.D. %/gram
- Biodistribution ([2]; heart, 60 min, male Sprague-Dawley rats): 0.466 ± 0.040 I.D. %/gram
- Biodistribution ([2]; heart, 120 min, male Sprague-Dawley rats): 0.410 ± 0.030 I.D. %/gram
- Biodistribution ([2]; kidney, 5 min, male Sprague-Dawley rats): 1.070 ± 0.058 I.D. %/gram
- Biodistribution ([2]; kidney, 30 min, male Sprague-Dawley rats): 0.988 ± 0.090 I.D. %/gram
- Biodistribution ([2]; kidney, 60 min, male Sprague-Dawley rats): 0.678 ± 0.032 I.D. %/gram
- Biodistribution ([2]; kidney, 120 min, male Sprague-Dawley rats): 0.659 ± 0.027 I.D. %/gram
- Biodistribution ([2]; liver, 5 min, male Sprague-Dawley rats): 1.626±0.221 I.D. %/gram
- Biodistribution ([2]; liver, 30 min, male Sprague-Dawley rats): 0.847 ± 0.027 I.D. %/gram
- Biodistribution ([2]; liver, 60 min, male Sprague-Dawley rats): 0.561 ± 0.028 I.D. %/gram
- Biodistribution ([2]; liver, 120 min, male Sprague-Dawley rats): 0.467 ± 0.023 I.D. %/gram
- Biodistribution ([2]; lung, 5 min, male Sprague-Dawley rats): 0.833 ± 0.053 I.D. %/gram
- Biodistribution ([2]; lung, 30 min, male Sprague-Dawley rats): 0.561 ± 0.021 I.D. %/gram
- Biodistribution ([2]; lung, 60 min, male Sprague-Dawley rats): 0.491 ± 0.030 I.D. %/gram
- Biodistribution ([2]; lung, 120 min, male Sprague-Dawley rats): 0.436 ± 0.018 I.D. %/gram
- ability to cross the blood-brain-barrier (BBB) ([2]; male Sprague-Dawley rats, i.v.): able to cross BBB
- Biodistribution ([2]; muscle, 5 min, male Sprague-Dawley rats): 0.430 ± 0.031 I.D. %/gram
- Biodistribution ([2]; muscle, 30 min, male Sprague-Dawley rats): 0.451 ± 0.018 I.D. %/gram
- Biodistribution ([2]; muscle, 60 min, male Sprague-Dawley rats): 0.376 ± 0.019 I.D. %/gram
- Biodistribution ([2]; muscle, 120 min, male Sprague-Dawley rats): 0.315 ± 0.015 I.D. %/gram
- Biodistribution ([2]; pancreas, 5 min, male Sprague-Dawley rats): 1.004 ± 0.147 I.D. %/gram
- Biodistribution ([2]; pancreas, 30 min, male Sprague-Dawley rats): 0.546 ± 0.068 I.D. %/gram
- Biodistribution ([2]; pancreas, 60 min, male Sprague-Dawley rats): 0.409 ± 0.029 I.D. %/gram
- Biodistribution ([2]; pancreas, 120 min, male Sprague-Dawley rats): 0.330 ± 0.021 I.D. %/gram
- Biodistribution ([2]; spleen, 5 min, male Sprague-Dawley rats): 0.672 ± 0.064 I.D. %/gram
- Biodistribution ([2]; spleen, 30 min, male Sprague-Dawley rats): 0.509 ± 0.022 I.D. %/gram
- Biodistribution ([2]; spleen, 60 min, male Sprague-Dawley rats): 0.446 ± 0.038 I.D. %/gram
- Biodistribution ([2]; spleen, 120 min, male Sprague-Dawley rats): 0.398 ± 0.019 I.D. %/gram
Compound: O=[N+]([O-])c1ccc2c(c1)Sc1cc(OCC[18F])ccc1N2 [[^18F]SIL26]

- IC50 (α-synuclein fibrils [1]): 39.6 ± 1.2 nM
- Ki (α-synuclein fibrils [1]): 9.5 nM
Compound: COc1ccc2c(c1)Nc1ccc([N+](=O)[O-])cc1O2 [TZ-2-39, 2-methoxy-7-nitro-10H-phenoxazine]

- Bmax (Aβ1-42 fibrils [5]; Aβ1-42 fibrils): 23.7 pmol/nmol
- Kd (Aβ1-42 fibrils [5]; Aβ1-42 fibrils): 635 nM
- affinity lower than that observed for α-synuclein fibrils (Aβ1-42 fibrils [5]; Aβ1-42 fibrils versus α-synuclein fibrils): 5 fold
- Bmax (tau fibrils; tau fibrils): 4.57 pmol/nmol
- Kd (tau fibrils; tau fibrils): 230 nM
- affinity lower than α-synuclein fibrils (tau fibrils; tau fibrils versus α-synuclein fibrils): approximately 2 fold
Compound: O=[N+]([O-])c1ccc2c(c1)Sc1cc(OC/C=C/[125I])ccc1N2 [[^125I]SIL23]

- IC50 (α-synuclein fibrils [1]): 111.8 ± 1.1 nM
- Ki (α-synuclein fibrils [1]): 26.8 nM
Compound: COc1ccc2c(c1)Oc1cc([N+](=O)[O-])cnc1N2 [TZ-2-48, 7-methoxy-3-nitro-10H-benzo[b]pyrido[2,3-e][1,4]-oxazine]

- IC50 (α-synuclein fibrils [1]): 500.9 ± 1.1 nM
- Ki (α-synuclein fibrils [1]): 120 nM
Compound: COc1ccc2c(c1)Nc1c(cccc1[N+](=O)[O-])O2 [TZ-2-52, 8-methoxy-1-nitro-10H-phenoxazine]

- Ki (α-synuclein fibrils [1]): > 1000 nM
Compound: COc1ccc2c(c1)Nc1cc([N+](=O)[O-])ccc1N2 [TZ16-133-2, 2-methoxy-8-nitro-5,10-dihydrophenazine]

- IC50 (α-synuclein fibrils [1]): 106.9 ± 1 nM
- Ki (α-synuclein fibrils [1]): 25.7 nM
Compound: COc1ccc2c(c1)Oc1cc([N+](=O)[O-])ccc1N2 [TZ-2-33, 3-methoxy-7-nitro-10H-phenoxazine]

- IC50 (α-synuclein fibrils [1]): 686.9 ± 1.2 nM
- Ki (α-synuclein fibrils [1]): 165 nM
Compound: COc1ccc2c(c1)Oc1cccc([N+](=O)[O-])c1N2 [TZ-2-54, 7-methoxy-1-nitro-10H-phenoxazine]
